In PubChem BioAssay AID248 (DTP/NCI, 2004):
Values joined by “and” are separate entries in the source; they are usually repeats but may differ in a detail not shown here. Equal entries are not always repeated. Inconclusive results and toxic doses are left out.

System: L1210 leukemia ip in BDF1 mice, survival T/C
Assay: NCI In Vivo Anticancer Drug Screen. Data for tumor model L1210 Leukemia (intraperitoneal) in B6D2F1 (BDF1) mice
Conditions: endpoint: mean survival time, higher = longer survival
How it was run: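 Tumor cells were implanted, animals were treated, and survival was followed. The result divides the treated measurement by the vehicle-control measurement.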

[1] = dose: 100.0 mg/kg/injection, schedule: Q04DX003 (ip), vehicle: saline with Tween-80
[2] = dose: 200.0 mg/kg/injection, schedule: Q04DX003 (ip), vehicle: saline with Tween-80
[3] = dose: 3.12 mg/kg/injection, schedule: Q01DX009 (ip), vehicle: saline
[4] = dose: 6.25 mg/kg/injection, schedule: Q01DX009 (ip), vehicle: saline
[5] = dose: 25.0 mg/kg/injection, schedule: Q04DX003 (ip), vehicle: saline
[6] = dose: 50.0 mg/kg/injection, schedule: Q01DX009 (ip), vehicle: saline
[7] = dose: 50.0 mg/kg/injection, schedule: Q04DX003 (ip), vehicle: saline
[8] = dose: 100.0 mg/kg/injection, schedule: Q01DX001 (ip), vehicle: saline
[9] = dose: 200.0 mg/kg/injection, schedule: Q01DX001 (ip), vehicle: saline
[10] = dose: 400.0 mg/kg/injection, schedule: Q01DX001 (ip), vehicle: saline
[11] = dose: 200.0 mg/kg/injection, schedule: Q01DX009 (ip), vehicle: saline

O=C(/C=C\C(=O)Nc1ccc(C2=NCCN2)cc1)Nc1ccc(C2=NCCN2)cc1
T/C (dose: 15.0 mg/kg/injection, schedule: Q01DX Z (ip), vehicle: saline): 124 % of control
T/C (dose: 30.0 mg/kg/injection, schedule: Q01DX Z (ip), vehicle: saline): 177 % of control
T/C (dose: 30.0 mg/kg/injection, schedule: Q01DX Z (oral), vehicle: saline): 103 % of control
T/C (dose: 60.0 mg/kg/injection, schedule: Q01DX Z (ip), vehicle: saline): 170 % of control
T/C (dose: 60.0 mg/kg/injection, schedule: Q01DX Z (oral), vehicle: saline): 114 % of control
T/C (dose: 120.0 mg/kg/injection, schedule: Q01DX Z (oral), vehicle: saline): 103 % of control
T/C (dose: 240.0 mg/kg/injection, schedule: Q01DX Z (oral), vehicle: saline): 102 % of control

COC(=O)C1CC(C)(C)N(C)C1(C)C (centres undefined)
T/C (dose: 100.0 mg/kg/injection, schedule: Q01DX009 (ip), vehicle: Klucel (hydroxypropylcellulose) (HPC)): 101 % of control
T/C (dose: 100.0 mg/kg/injection, schedule: Q04DX003 (ip), vehicle: Klucel (hydroxypropylcellulose) (HPC)): 100 % of control
T/C (dose: 200.0 mg/kg/injection, schedule: Q01DX009 (ip), vehicle: Klucel (hydroxypropylcellulose) (HPC)): 106 % of control and 92 % of control
T/C (dose: 200.0 mg/kg/injection, schedule: Q04DX003 (ip), vehicle: Klucel (hydroxypropylcellulose) (HPC)): 103 % of control

O=C1N=C(C(F)(F)F)N=C1c1[nH]c(C(F)(F)F)nc1O
T/C (dose: 100.0 mg/kg/injection, schedule: Q01DX009 (ip), vehicle: saline with Tween-80): 95 % of control
T/C [1]: 104 % of control
T/C (dose: 200.0 mg/kg/injection, schedule: Q01DX009 (ip), vehicle: saline with Tween-80): 98 % of control
T/C [2]: 100 % of control
T/C (dose: 400.0 mg/kg/injection, schedule: Q01DX009 (ip), vehicle: saline with Tween-80): 102 % of control
T/C (dose: 400.0 mg/kg/injection, schedule: Q04DX003 (ip), vehicle: saline with Tween-80): 105 % of control

CS(=N)(=O)c1ccccc1 (centres undefined)
T/C (dose: 100.0 mg/kg/injection, schedule: Q01DX009 (ip), vehicle: other): 99 % of control
T/C (dose: 100.0 mg/kg/injection, schedule: Q04DX003 (ip), vehicle: saline): 97 % of control
T/C (dose: 200.0 mg/kg/injection, schedule: Q01DX009 (ip), vehicle: other): 95 % of control
T/C (dose: 200.0 mg/kg/injection, schedule: Q04DX003 (ip), vehicle: saline): 100 % of control
T/C (dose: 400.0 mg/kg/injection, schedule: Q01DX009 (ip), vehicle: other): 97 % of control
T/C (dose: 400.0 mg/kg/injection, schedule: Q04DX003 (ip), vehicle: saline): 97 % of control

CCOC(=O)c1ccc(CCCCl)cc1
T/C (dose: 100.0 mg/kg/injection, schedule: Q01DX001 (ip), vehicle: Klucel (hydroxypropylcellulose) (HPC)): 98 % of control
T/C (dose: 200.0 mg/kg/injection, schedule: Q01DX001 (ip), vehicle: Klucel (hydroxypropylcellulose) (HPC)): 88 % of control
T/C (dose: 400.0 mg/kg/injection, schedule: Q01DX001 (ip), vehicle: Klucel (hydroxypropylcellulose) (HPC)): 91 % of control

CNCCCN1c2ccccc2CCc2ccccc21
T/C [3]: 123 % of control
T/C (dose: 5.0 mg/kg/injection, schedule: Q01DX001 (ip), vehicle: saline): 105 % of control
T/C [4]: 115 % of control
T/C (dose: 10.0 mg/kg/injection, schedule: Q01DX001 (ip), vehicle: saline): 100 % of control
T/C (dose: 12.5 mg/kg/injection, schedule: Q01DX009 (ip), vehicle: saline): 115 % of control
T/C (dose: 20.0 mg/kg/injection, schedule: Q01DX001 (ip), vehicle: saline): 111 % of control
T/C (dose: 25.0 mg/kg/injection, schedule: Q01DX009 (ip), vehicle: saline): 110 % of control
T/C [5]: 101 % of control
T/C (dose: 40.0 mg/kg/injection, schedule: Q01DX001 (ip), vehicle: saline): 95 % of control
T/C [6]: 106 % of control
T/C [7]: 97 % of control
T/C (dose: 80.0 mg/kg/injection, schedule: Q01DX001 (ip), vehicle: saline): 92 % of control

COc1ccc(C(C)=O)c(O)c1OC
T/C [8]: 101 % of control
T/C [9]: 101 % of control
T/C [10]: 98 % of control

S=P(NCCCCCCNP(=S)(N1CC1)N1CC1)(N1CC1)N1CC1
T/C (dose: 100.0 mg/kg/injection, schedule: Q01DX001 (ip), vehicle: carboxymethylcellulose (CMC)): 104 % of control
T/C (dose: 200.0 mg/kg/injection, schedule: Q01DX001 (ip), vehicle: carboxymethylcellulose (CMC)): 112 % of control
T/C (dose: 400.0 mg/kg/injection, schedule: Q01DX001 (ip), vehicle: carboxymethylcellulose (CMC)): 119 % of control

NP(=O)(N1CC1)N1CC1
T/C (dose: 1.0 mg/kg/injection, schedule: Q01DX001 (ip), vehicle: carboxymethylcellulose (CMC)): 110 % of control
T/C (dose: 1.0 mg/kg/injection, schedule: Q01DX015 (ip), vehicle: carboxymethylcellulose (CMC)): 116 % of control
T/C (dose: 2.0 mg/kg/injection, schedule: Q01DX001 (ip), vehicle: carboxymethylcellulose (CMC)): 124 % of control
T/C (dose: 4.0 mg/kg/injection, schedule: Q01DX001 (ip), vehicle: carboxymethylcellulose (CMC)): 110 % of control
T/C (dose: 15.0 mg/kg/injection, schedule: Q01DX001 (ip), vehicle: carboxymethylcellulose (CMC)): 150 % of control
T/C (dose: 30.0 mg/kg/injection, schedule: Q01DX001 (ip), vehicle: carboxymethylcellulose (CMC)): 186 % of control

COC1/C=C/OC2(C)Oc3c(C)c(O)c4c(O)c(c(/C=N/N(C)c5ncnc6c5ncn6C5OC(CO)C(O)C5O)c(O)c4c3C2=O)NC(=O)C(C)=C/C=C/C(C)C(O)C(C)C(O)C(C)C(OC(C)=O)C1C (centres undefined)
T/C [11]: 87 % of control
T/C (dose: 400.0 mg/kg/injection, schedule: Q01DX009 (ip), vehicle: saline): 94 % of control

Nc1ccc(C(=O)Nc2cccc(S(=O)(=O)F)c2)cc1
T/C [8]: 107 % of control
T/C [9]: 106 % of control
T/C [10]: 90 % of control

CCCC[n+]1cc(C(N)=O)cc2ccccc21
T/C (dose: 75.0 mg/kg/injection, schedule: Q01DX001 (ip), vehicle: saline): 96 % of control
T/C (dose: 150.0 mg/kg/injection, schedule: Q01DX001 (ip), vehicle: saline): 95 % of control

O=C(O)Cc1ccc2ccccc2c1
T/C (dose: 50.0 mg/kg/injection, schedule: Q01DX001 (ip), vehicle: saline): 101 % of control
T/C [8]: 103 % of control
T/C [9]: 107 % of control
T/C [10]: 103 % of control

NC(=S)N1N=C(c2ccccc2)CC1=O
T/C (dose: 75.0 mg/kg/injection, schedule: Q01DX001 (ip), vehicle: carboxymethylcellulose (CMC)): 107 % of control
T/C (dose: 150.0 mg/kg/injection, schedule: Q01DX001 (ip), vehicle: carboxymethylcellulose (CMC)): 96 % of control
T/C (dose: 300.0 mg/kg/injection, schedule: Q01DX001 (ip), vehicle: carboxymethylcellulose (CMC)): 96 % of control

C=CCC/C(=N\NC(N)=O)c1ccccc1
T/C (dose: 75.0 mg/kg/injection, schedule: Q01DX001 (ip), vehicle: acetone): 99 % of control
T/C (dose: 150.0 mg/kg/injection, schedule: Q01DX001 (ip), vehicle: acetone): 91 % of control
T/C (dose: 300.0 mg/kg/injection, schedule: Q01DX001 (ip), vehicle: acetone): 110 % of control

S=C(Cc1ccc2ccccc2c1)N1CCOCC1
T/C (dose: 25.0 mg/kg/injection, schedule: Q01DX009 (ip), vehicle: saline sonified): 94 % of control
T/C (dose: 50.0 mg/kg/injection, schedule: Q01DX009 (ip), vehicle: saline sonified): 100 % of control
T/C (dose: 100.0 mg/kg/injection, schedule: Q01DX001 (ip), vehicle: saline with Tween-80): 105 % of control
T/C (dose: 100.0 mg/kg/injection, schedule: Q01DX009 (ip), vehicle: saline sonified): 96 % of control

CC1(C)CC(N=Cc2ccccc2O)CC(C)(C)N1O.CC1(C)CC(N=Cc2ccccc2O)CC(C)(C)N1O.[Cu]
T/C (dose: 12.5 mg/kg/injection, schedule: Q04DX003 (ip), vehicle: saline): 89 % of control
T/C [5]: 101 % of control
T/C [7]: 101 % of control

CCN(CC)CCOC(=O)c1ccco1
T/C [6]: 96 % of control
T/C (dose: 100.0 mg/kg/injection, schedule: Q01DX009 (ip), vehicle: saline): 103 % of control
T/C [11]: 100 % of control

Cc1nc2cc(N=Cc3ccc(N(CCCl)CCCl)cc3Cl)ccc2n1C
T/C (dose: 100.0 mg/kg/injection, schedule: Q04DX002 (ip), vehicle: Klucel (hydroxypropylcellulose) (HPC)): 104 % of control
T/C (dose: 200.0 mg/kg/injection, schedule: Q04DX002 (ip), vehicle: Klucel (hydroxypropylcellulose) (HPC)): 104 % of control
T/C (dose: 400.0 mg/kg/injection, schedule: Q04DX002 (ip), vehicle: Klucel (hydroxypropylcellulose) (HPC)): 104 % of control

C=C1C2CCC3C4(C)CC(OC5OC(CO)C(OS(=O)(=O)O)C(OS(=O)(=O)O)C5OC(=O)CCCC)CC(C(=O)O)C4CCC3(C2)C1O (centres undefined)
T/C [3]: 104 % of control
T/C [4]: 92 % of control
T/C [1]: 98 % of control
T/C [2]: 106 % of control
